Assay: Microsomal metabolic stability study
Assay type: in vitro ADME, SD rats
Conditions: 25 µM, RLM
Procedure: RLM was prepared from SD rats from our lab, as previously reported. In vitro metabolic stability of PSTi8 was determined using RLM. The reaction milieu was prepared by adding 50 mM Tris buffer (pH 7.4), 40 mM MgCl2 pre-incubated at 37 °C along with RLM (0.5 mg/mL) and spiked at a concentration (5 µM) of PSTi8. The reaction was started with NADPH (1 mM) and without NADPH (negative control using Tris buffer). A total of 100 µL samples were collected at 0, 5, 15, 30, 45 and 60 min, and the reaction was quenched with liquid nitrogen. Samples were processed with the SPE procedure and analyzed using the LC-MS/MS method. Negative control was used to assess the peptide stability in the reaction milieu and the positive control (Testosterone, 25 µM) was incubated to obtain the microsomal activity.

For `C[C@]12CC[C@H]3[C@@H](CCC4=CC(=O)CC[C@@]43C)[C@@H]1CC[C@@H]2O` [testosterone, reference compound], the “half-life of positive control” value was “within the acceptable in-house limits”.
